Data set [1] has as its system human red blood cells (hRBC). Put plainly: Hemolysis of human red blood cells. It is filed as cell-based. To be noted: red cells of human, 1 h. In outline: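 Percent hemolysis is OD540 of peptide-treated supernatant relative to water-lysed cells. Each peptide was tested at 200 μg/mL against 20% (v/v) washed human erythrocytes. Incubation was 1 h at 37 °C, 300 rpm.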

Data set [2] has as its system Klebsiella pneumoniae SSI3010. To be noted: SSI3010. The essentials: (§1)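 Peptides were made up as 1 mg/mL stocks in sterile water. Colonies in 0.85% saline were set to 0.5 McFarland, then diluted in cation-adjusted Mueller-Hinton II broth to about 5×10^5 CFU/mL. Inoculum was combined with two-fold serial peptide dilutions in water containing 0.002% (final) polysorbate 80.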

Data set [3] concerns Escherichia coli MCR-1 Af 45. To be noted: MCR-1 Af 45. The essentials:
as §1

Data set [4] relates to Escherichia coli ATCC 25922. The conditions noted are these: ATCC 25922. The essentials:
as §1

Peptide text beside a SMILES is read from it. Some results are limits rather than exact numbers.

These results are taken from patent US20230295234A1, “ANTIMICROBIAL PEPTIDOMIMETICS” (SPEXIS AG, priority 2020, published 2023).

Regarding `CCCC[C@H](NC(=O)[C@H](CCCNC(=N)N)NC(=O)[C@H](CCC(N)=O)NC(=O)[C@@H]1CSSC[C@H](NC(=O)[C@H](Cc2ccc(O)cc2)NC(=O)[C@@H](NC(=O)[C@@H](NC(=O)[C@@H]2CCCN2C(=O)[C@@H](NC(=O)[C@@H]2CCCN2C(=O)[C@H](CCCCN)NC(=O)[C@@H](N)CCCCN)C(C)C)[C@@H](C)CC)[C@@H](C)CC)C(=O)N[C@@H](CC(N)=O)C(=O)N[C@@H](CCCNC(=N)N)C(=O)N[C@@H](CCN)C(=O)N[C@@H]([C@@H](C)O)C(=O)N[C@H](CCN)C(=O)N[C@@H](CCCCN)C(=O)N1)C(=O)O` [Example 67] (HELM PEPTIDE1{K.K.P.V.P.I.I.Y.C.N.R.[Dab].T.[NCC[C@@H](N[*:1])C(=O)[*:2]].K.C.Q.R.[Nle]}$PEPTIDE1,PEPTIDE1,9:R3-16:R3$$$V2.0), in data set [1], the “Hemolysis at 0.2 g/L” value is listed as 0%. For the same molecule, the “Klebsiella pneumoniae SSI3010 MIC” value in data set [2] amounted to 0.25 µg/mL. Also, the “Escherichia coli MCR-1 Af 45 MIC” value in data set [3] came out at 0.25 µg/mL. Further, the “Escherichia coli ATCC 25922 MIC” value in data set [4] was found to be 0.125 µg/mL.

`CCCC[C@H](NC(=O)[C@H](CCCNC(=N)N)NC(=O)[C@H](CCCNC(=N)N)NC(=O)[C@@H]1CSSC[C@H](NC(=O)[C@H](Cc2ccc(O)cc2)NC(=O)[C@@H](NC(=O)[C@@H](NC(=O)[C@@H]2CCCN2C(=O)[C@@H](NC(=O)[C@@H]2CCCN2C(=O)[C@H](CCCCN)NC(=O)[C@@H](N)CCCCN)C(C)C)[C@@H](C)CC)[C@@H](C)CC)C(=O)N[C@@H](CC(N)=O)C(=O)N[C@@H](CCCNC(=N)N)C(=O)N[C@@H](CCN)C(=O)N[C@@H]([C@@H](C)O)C(=O)N[C@H](CCN)C(=O)N[C@@H](CCCCN)C(=O)N1)C(=O)O` [Example 68] (HELM PEPTIDE1{K.K.P.V.P.I.I.Y.C.N.R.[Dab].T.[NCC[C@@H](N[*:1])C(=O)[*:2]].K.C.R.R.[Nle]}$PEPTIDE1,PEPTIDE1,9:R3-16:R3$$$V2.0): the “Hemolysis at 0.2 g/L” value in data set [1] came to 0%. For the same molecule, in data set [2], the “Klebsiella pneumoniae SSI3010 MIC” value was no more than 0.125 µg/mL. The “Escherichia coli MCR-1 Af 45 MIC” value in data set [3] turned out to be 0.0625 µg/mL. Besides, in data set [4], the “Escherichia coli ATCC 25922 MIC” value stood at 0.03125 µg/mL.

As for `CCCC[C@H](NC(=O)[C@H](CCCNC(=N)N)NC(=O)[C@H](CCC(N)=O)NC(=O)[C@@H]1CSSC[C@H](NC(=O)[C@H](Cc2ccc(O)cc2)NC(=O)[C@@H](NC(=O)[C@@H](NC(=O)[C@@H]2CCCN2C(=O)[C@@H](NC(=O)[C@@H]2CCCN2C(=O)[C@H](CCCCN)NC(=O)[C@@H](N)CCCCN)C(C)C)[C@@H](C)CC)[C@@H](C)CC)C(=O)N[C@@H](CC(N)=O)C(=O)N[C@@H](CCCNC(=N)N)C(=O)N[C@@H](CCCNC(=N)N)C(=O)N[C@@H]([C@@H](C)O)C(=O)N[C@H](CCN)C(=O)N[C@@H](CCN)C(=O)N1)C(=O)O` [Example 69] (HELM PEPTIDE1{K.K.P.V.P.I.I.Y.C.N.R.R.T.[NCC[C@@H](N[*:1])C(=O)[*:2]].[Dab].C.Q.R.[Nle]}$PEPTIDE1,PEPTIDE1,9:R3-16:R3$$$V2.0), the “Hemolysis at 0.2 g/L” value in data set [1] turned out to be 0%. In addition, the “Klebsiella pneumoniae SSI3010 MIC” value in data set [2] is 0.125 µg/mL. In addition, in data set [3], the “Escherichia coli MCR-1 Af 45 MIC” value came out at 0.125 µg/mL. Besides, the “Escherichia coli ATCC 25922 MIC” value in data set [4] was 0.0625 µg/mL.

For `CCCC[C@H](NC(=O)[C@H](CCCNC(=N)N)NC(=O)[C@H](CCN)NC(=O)[C@@H]1CSSC[C@H](NC(=O)[C@H](Cc2ccc(O)cc2)NC(=O)[C@@H](NC(=O)[C@@H](NC(=O)[C@@H]2CCCN2C(=O)[C@@H](NC(=O)[C@@H]2CCCN2C(=O)[C@H](CCCCN)NC(=O)[C@H](N)CCCCN)C(C)C)[C@@H](C)CC)[C@@H](C)CC)C(=O)N[C@@H](CC(N)=O)C(=O)N[C@@H](CCCNC(=N)N)C(=O)N[C@@H](CCCNC(=N)N)C(=O)N[C@@H]([C@@H](C)O)C(=O)N[C@H](CCN)C(=O)N[C@@H](CCCCN)C(=O)N1)C(=O)O` [Example 70] (HELM PEPTIDE1{[dK].K.P.V.P.I.I.Y.C.N.R.R.T.[NCC[C@@H](N[*:1])C(=O)[*:2]].K.C.[Dab].R.[Nle]}$PEPTIDE1,PEPTIDE1,9:R3-16:R3$$$V2.0), the “Hemolysis at 0.2 g/L” value in data set [1] worked out at 0%. Also, the “Klebsiella pneumoniae SSI3010 MIC” value in data set [2] was determined as 0.125 µg/mL. For the same molecule, the “Escherichia coli MCR-1 Af 45 MIC” value in data set [3] came to 0.0625 µg/mL. Moreover, the “Escherichia coli ATCC 25922 MIC” value in data set [4] was 0.03125 µg/mL.

Take `CC[C@H](C)[C@H](NC(=O)[C@@H](NC(=O)[C@@H]1CCCN1C(=O)[C@@H](NC(=O)[C@@H]1CCCN1C(=O)[C@H](CCCNC(=N)N)NC(=O)[C@@H](N)CCCCN)C(C)C)[C@@H](C)CC)C(=O)N[C@@H](Cc1ccc(O)cc1)C(=O)N[C@H]1CSSC[C@@H](C(=O)N[C@@H](CCN)C(=O)N[C@@H](CCCNC(=N)N)C(=O)N[C@@H](Cc2ccc(O)cc2)C(=O)O)NC(=O)[C@H](CCCCN)NC(=O)[C@@H](CCN)NC(=O)[C@H]([C@@H](C)O)NC(=O)[C@H](CCN)NC(=O)[C@H](CCCNC(=N)N)NC(=O)[C@H](CC(N)=O)NC1=O` [Example 71] (HELM PEPTIDE1{K.R.P.V.P.I.I.Y.C.N.R.[Dab].T.[NCC[C@@H](N[*:1])C(=O)[*:2]].K.C.[Dab].R.Y}$PEPTIDE1,PEPTIDE1,9:R3-16:R3$$$V2.0): the “Hemolysis at 0.2 g/L” value in data set [1] worked out at 0%. The “Klebsiella pneumoniae SSI3010 MIC” value in data set [2] was found to be 0.0625 µg/mL. Also, the “Escherichia coli MCR-1 Af 45 MIC” value in data set [3] was determined as 0.0625 µg/mL. The “Escherichia coli ATCC 25922 MIC” value in data set [4] amounted to 0.0625 µg/mL.

On to `CCCC[C@H](NC(=O)[C@H](CCCNC(=N)N)NC(=O)[C@H](CCN)NC(=O)[C@@H]1CSSC[C@H](NC(=O)[C@H](Cc2ccc(O)cc2)NC(=O)[C@H](CCCNC(=N)N)NC(=O)[C@@H](NC(=O)[C@@H]2CCCN2C(=O)[C@@H](NC(=O)[C@@H]2CCCN2C(=O)[C@H](CCCNC(=N)N)NC(=O)[C@@H](N)CCCCN)C(C)C)[C@@H](C)CC)C(=O)N[C@@H](CC(N)=O)C(=O)N[C@@H](CCCNC(=N)N)C(=O)N[C@@H](CCN)C(=O)N[C@@H]([C@@H](C)O)C(=O)N[C@H](CCN)C(=O)N[C@@H](CCCCN)C(=O)N1)C(=O)O` [Example 72] (HELM PEPTIDE1{K.R.P.V.P.I.R.Y.C.N.R.[Dab].T.[NCC[C@@H](N[*:1])C(=O)[*:2]].K.C.[Dab].R.[Nle]}$PEPTIDE1,PEPTIDE1,9:R3-16:R3$$$V2.0), for which, in data set [1], the “Hemolysis at 0.2 g/L” value was found to be 0%. Also, the “Klebsiella pneumoniae SSI3010 MIC” value in data set [2] is no more than 0.25 µg/mL. In addition, the “Escherichia coli MCR-1 Af 45 MIC” value in data set [3] is 0.0625 µg/mL. Moreover, the “Escherichia coli ATCC 25922 MIC” value in data set [4] was no more than 0.0625 µg/mL.

For the molecule `CCCC[C@H](NC(=O)[C@H](CCCNC(=N)N)NC(=O)[C@H](CCN)NC(=O)[C@H]1NC(=O)[C@H](CCCCN)NC(=O)[C@@H](CCN)NC(=O)[C@H]([C@@H](C)O)NC(=O)[C@H](CCN)NC(=O)[C@H](CCCNC(=N)N)NC(=O)[C@H](CC(N)=O)NC(=O)[C@@H](NC(=O)[C@H](Cc2ccc(O)cc2)NC(=O)[C@@H](NC(=O)[C@@H](NC(=O)[C@@H]2CCCN2C(=O)[C@@H](NC(=O)[C@@H]2CCCN2C(=O)[C@H](CCCNC(=N)N)NC(=O)[C@@H](N)CCCCN)C(C)C)[C@@H](C)CC)[C@@H](C)CC)CSSC1(C)C)C(=O)O` [Example 73] (HELM PEPTIDE1{K.R.P.V.P.I.I.Y.C.N.R.[Dab].T.[NCC[C@@H](N[*:1])C(=O)[*:2]].K.[Pen].[Dab].R.[Nle]}$PEPTIDE1,PEPTIDE1,9:R3-16:R3$$$V2.0), the “Hemolysis at 0.2 g/L” value in data set [1] was determined as 0%. Further, the “Klebsiella pneumoniae SSI3010 MIC” value in data set [2] was found to be 0.125 µg/mL. For the same molecule, the “Escherichia coli MCR-1 Af 45 MIC” value in data set [3] was 0.0625 µg/mL. For the same molecule, the “Escherichia coli ATCC 25922 MIC” value in data set [4] is no more than 0.125 µg/mL.

Turning to `CCCC[C@H](NC(=O)[C@H](CCCNC(=N)N)NC(=O)[C@H](CCN)NC(=O)[C@@H]1CSSC[C@H](NC(=O)[C@H](Cc2ccc(O)cc2)NC(=O)[C@H](CCCNC(=N)N)NC(=O)[C@@H](NC(=O)[C@@H]2C[C@@H](N)CN2C(=O)[C@@H](NC(=O)[C@@H]2CCCN2C(=O)[C@H](CCCCN)NC(=O)[C@@H](N)CCCCN)C(C)C)[C@@H](C)CC)C(=O)N[C@@H](CC(N)=O)C(=O)N[C@@H](CCCNC(=N)N)C(=O)N[C@@H](CCCNC(=N)N)C(=O)N[C@@H]([C@@H](C)O)C(=O)N[C@H](CCN)C(=O)N[C@@H](CCCCN)C(=O)N1)C(=O)O` [Example 74] (HELM PEPTIDE1{K.K.P.V.[N[C@@H]1C[C@@H](C(=O)[*:2])N([*:1])C1].I.R.Y.C.N.R.R.T.[NCC[C@@H](N[*:1])C(=O)[*:2]].K.C.[Dab].R.[Nle]}$PEPTIDE1,PEPTIDE1,9:R3-16:R3$$$V2.0), in data set [1], the “Hemolysis at 0.2 g/L” value was 0%. Further, the “Klebsiella pneumoniae SSI3010 MIC” value in data set [2] was 0.0625 µg/mL. Besides, the “Escherichia coli MCR-1 Af 45 MIC” value in data set [3] is 0.0625 µg/mL. Moreover, the “Escherichia coli ATCC 25922 MIC” value in data set [4] amounted to 0.03125 µg/mL.

As for `CCCC[C@H](NC(=O)[C@H](CCCNC(=N)N)NC(=O)[C@H](CCN)NC(=O)[C@@H]1CSSC[C@H](NC(=O)[C@H](Cc2ccc(O)cc2)NC(=O)[C@H](CCCNC(=N)N)NC(=O)[C@@H](NC(=O)[C@@H]2CCCN2C(=O)[C@@H](NC(=O)[C@@H]2CCCN2C(=O)[C@H](CCCNC(=N)N)NC(=O)[C@@H](N)CCCCN)C(C)C)[C@@H](C)CC)C(=O)N[C@@H](CC(N)=O)C(=O)N[C@@H](CCCNC(=N)N)C(=O)N[C@@H](CCCNC(=N)N)C(=O)N[C@@H]([C@@H](C)O)C(=O)N[C@H](CCN)C(=O)N[C@@H](CCCCN)C(=O)N1)C(=O)O` [Example 75] (HELM PEPTIDE1{K.R.P.V.P.I.R.Y.C.N.R.R.T.[NCC[C@@H](N[*:1])C(=O)[*:2]].K.C.[Dab].R.[Nle]}$PEPTIDE1,PEPTIDE1,9:R3-16:R3$$$V2.0), in data set [1], the “Hemolysis at 0.2 g/L” value is 0%. Moreover, the “Klebsiella pneumoniae SSI3010 MIC” value in data set [2] came to 0.0625 µg/mL. In data set [3], the “Escherichia coli MCR-1 Af 45 MIC” value amounted to 0.0625 µg/mL. Besides, the “Escherichia coli ATCC 25922 MIC” value in data set [4] was no more than 0.0625 µg/mL.
